Assay results: ChEMBL document CHEMBL5154799, “Discovery of a Novel Stilbene Derivative as a Microtubule Targeting Agent Capable of Inducing Cell Ferroptosis” (J Med Chem, 2022)
Active and inactive are the calls of the source. No cut-off for these calls is given here.

Key:
[1] = Selectivity ratio of IC50 for cytotoxicity against human MCF-10A cells assessed as reduction in cell viability to IC50 for cytotoxicity against human A549 cells assessed as reduction in cell viability; type: toxicity, cell-based; conditions: MCF-10A cells versus A549 cells
[2] = Toxicity in human A549 cells xenografted in athymic nude BALB/c nude mouse assessed as morphological changes in kidney at 10 mg/kg, ip measured after 30 days by H and E staining based histological analysis; type: organism-based; conditions: in vivo, 720 h, time 30 day
Tubulin (Homo sapiens) [3] = molecular target: T1, Tubulin (Homo sapiens) (UniProt P68371+Q9H4B7+P0DPH7+P68366+Q13509+Q71U36+P04350+Q3ZCM7+P07437+P68363+Q9BQE3+Q6PEY2+Q13885+Q9BVA1+Q9BUF5); assay: Inhibition of [3H]colchicine binding to tubulin (unknown origin) at 0.3725 uM by competitive binding assay relative to control; type: protein-complex assay
[4] = Cytotoxicity against human MCF-10A cells assessed as reduction in cell viability; type: toxicity, cell-based
[5] = Toxicity in human A549 cells xenografted in athymic nude BALB/c nude mouse assessed as morphological changes in liver at 10 mg/kg, ip measured after 30 days by H and E staining based histological analysis; type: organism-based; conditions: in vivo, 720 h, time 30 day
PC-3 = assay: Antiproliferative activity against human PC-3 cells assessed as inhibition of cell proliferation incubated for 2 hrs by CCK-8 assay; type: functional, cell-based; conditions: DDE = dose-dependent effect
[6] = MRT in ICR mouse at 10 mg/kg, po single administration measured for 24 hrs post treatment by LC-MS/MS analysis; type: ADME, organism-based; conditions: in vivo
SMMC-7721 = assay: Antiproliferative activity against human SMMC-7721 cells assessed as inhibition of cell proliferation incubated for 2 hrs by CCK-8 assay; type: functional, cell-based; conditions: DDE = dose-dependent effect
HeLa = assay: Antiproliferative activity against human HeLa cells assessed as cell viability incubated for 48 hrs by MTT assay; type: functional, cell-based
A549 [7] = assay: Cell cycle arrest in human A549 cells assessed as increase in accumulation in G2/M phase incubated for 24 to 48 hrs by PI staining based flow cytometry analysis; type: functional; conditions: dose 5-20 nM, time 24-48 hrs, DDE = dose-dependent effect
[8] = Acute oral toxicity in rat assessed as death at 550 mg/kg measured over 8 hours daily for 14 days; type: organism-based; conditions: in vivo, 336 h, time 14 day
A549 [9] = assay: Antiproliferative activity against human A549 cells assessed as cell viability incubated for 48 hrs by MTT assay; type: functional, cell-based; conditions: A549, 48 h
A2780 = assay: Antiproliferative activity against human A2780 cells assessed as cell viability incubated for 48 hrs by MTT assay; type: functional, cell-based; conditions: A2780, 48 h
HCT-8 = assay: Antiproliferative activity against human vincristine-resistant HCT-8/VCR cells assessed as cell viability incubated for 48 hrs by MTT assay; type: functional, cell-based; conditions: HCT-8, 48 h
Tubulin (Homo sapiens) [10] = molecular target: T1, Tubulin (Homo sapiens); assay: Inhibition of [3H]colchicine binding to tubulin (unknown origin) at 0.075 uM by competitive binding assay relative to control; type: protein-complex assay
Tubulin (Homo sapiens) [11] = molecular target: T1, Tubulin (Homo sapiens); assay: Induction of microtubule disruption in human A549 cells assessed as abnormal uncondensed cytoplasm at 5 to 20 uM incubated for 12 hrs by immunofluorescence based laser scanning confocal microscopic analysis; type: cell-based; conditions: dose 5-20 µM
[12] = Toxicity in athymic nude BALB/c mouse assessed as change in body weight at 10 mg/kg, ip measured for 30 days; type: organism-based; conditions: in vivo, 720 h, time 30 day
A549 [13] = assay: Antiproliferative activity against human A549 cells assessed as inhibition of cell proliferation incubated for 2 hrs by CCK-8 assay; type: functional, cell-based; conditions: DDE = dose-dependent effect
A549 [14] = assay: Induction of apoptosis in human A549 cells assessed as cell viability pretreated with ferroptosis inhibitor desferoxamine for 24 hrs followed by incubation with compound at 20 nM and measured after 48 hrs by CCK-8 assay; type: functional, cell-based
[15] = Tmax in ICR mouse at 10 mg/kg, po single administration measured for 24 hrs post treatment by LC-MS/MS analysis; type: ADME, organism-based; conditions: in vivo
[16] = Selectivity ratio of IC50 for cytotoxicity against HUVEC cells assessed as reduction in cell viability to IC50 for cytotoxicity against human A549 cells assessed as reduction in cell viability; type: toxicity, cell-based; conditions: HUVEC cells versus A549 cells
A549 [17] = assay: Cell cycle arrest in human A549 cells assessed as downregulation of Cdc2 expression at 5 to 20 nM incubated for 24 to 48 hrs by Western blot analysis; type: functional, cell-based; conditions: dose 5-20 nM, time 24-48 hrs
[18] = Toxicity in human A549 cells xenografted in athymic nude BALB/c nude mouse assessed as morphological changes in lung at 10 mg/kg, ip measured after 30 days by H and E staining based histological analysis; type: organism-based; conditions: in vivo, 720 h, time 30 day
[19] = Acute toxicity in rat assessed as median lethal dose after at 175 to 550 mg/kg for 14 days; type: organism-based; conditions: in vivo, dose 175-550 mg/kg, time 14 day
[20] = Clearance in ICR mouse at 1 mg/kg, iv single administration measured for 24 hrs post treatment by LC-MS/MS analysis; type: ADME, organism-based; conditions: in vivo
[21] = molecular target: T2, Phospholipid hydroperoxide glutathione peroxidase GPX4 (Homo sapiens) (UniProt P36969); assay: Inhibition of GPX4 in human A549 cells assessed as decrease in GPX4 protein […] at 5 to 20 uM for 24 hrs by Western blotting analysis; type: cell-based; conditions: dose 5-20 µM
T2 sequence (whole entry): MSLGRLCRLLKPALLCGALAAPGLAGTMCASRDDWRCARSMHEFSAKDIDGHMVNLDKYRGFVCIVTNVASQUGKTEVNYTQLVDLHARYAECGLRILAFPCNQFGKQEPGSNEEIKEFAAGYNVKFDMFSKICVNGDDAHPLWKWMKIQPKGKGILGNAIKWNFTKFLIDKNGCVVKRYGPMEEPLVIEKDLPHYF

MGC-803 = assay: Antiproliferative activity against human MGC-803 cells assessed as inhibition of cell proliferation incubated for 2 hrs by CCK-8 assay; type: functional, cell-based; conditions: DDE = dose-dependent effect
A549 [22] = assay: Induction of ferroptosis in human A549 cells assessed as accumulation of superoxide anions incubated for 24 hrs by DCFH-DA staining based fluorescence microscopy; type: functional, cell-based; conditions: dose 5-10 nM, DDE = dose-dependent effect
A549 [23] = assay: Cell cycle arrest in human A549 cells assessed as increase in accumulation in G2/M phase at 5 to 20 nM by PI staining based flow cytometry analysis; type: functional; conditions: dose 5-20 nM, time 24-48 hrs, TDE = time-dependent effect
A549 [24] = assay: Cell cycle arrest in human A549 cells assessed as downregulation of Cdc25C expression at 5 to 20 nM incubated for 24 to 48 hrs by Western blot analysis; type: functional, cell-based; conditions: dose 5-20 nM, time 24-48 hrs
[25] = Half life in ICR mouse at 10 mg/kg, po single administration measured for 24 hrs post treatment by LC-MS/MS analysis; type: ADME, organism-based; conditions: in vivo
A549 [26] = assay: Induction of ferroptosis in human A549 cells assessed as accumulation of intracellular ROS incubated for 24 hrs by DCFH-DA staining based fluorescence microscopy; type: functional, cell-based; conditions: dose 5-10 nM, DDE = dose-dependent effect
A549 [27] = assay: Induction of cell death in human A549 cells assessed as vanished mitochondrial cristae at 10 nM for 12 hrs by TEM analysis; type: functional, cell-based
A549 [28] = assay: Cytotoxicity against human A549 cells assessed as reduction in cell viability; type: functional, cell-based
[29] = Tmax in ICR mouse at 1 mg/kg, iv single administration measured for 24 hrs post treatment by LC-MS/MS analysis; type: ADME, organism-based; conditions: in vivo

For `C=C(c1cc(OC)c(OC)c(OC)c1)c1ccc(OC)c(O)c1NC(=O)CO`, the selectivity ratio [1] was 54, the Activity [2] was “Non-Toxic” and the inhibition (Tubulin (Homo sapiens) [3]) was 4.07%. For the same molecule, the IC50 [4] was 540 nM, the Activity [5] was “Non-Toxic” and the Activity (PC-3) was “Dde”. For the same molecule, the MRT [6] was 2.57 h, the Activity (SMMC-7721) was “Dde” and the IC50 (HeLa) was 20 nM. The Activity (A549 [7]) was “Dde”, the Activity [8] was “Toxic” and the IC50 (A549 [9]) was 10 nM. For the same molecule, the IC50 (A2780) was 20 nM, the IC50 (HCT-8) was 70 nM and the inhibition (Tubulin (Homo sapiens) [10]) was 16.7%. The Activity (Tubulin (Homo sapiens) [11]) was “Active”, the Activity [12] was “Non-Toxic” and the Activity (A549 [13]) was “Dde”. For the same molecule, the Activity (A549 [14]) was “Active”, the Tmax [15] was 0.25 h and the selectivity ratio [16] was 4. For the same molecule, the Activity (A549 [17]) was “Active”, the Activity [18] was “Non-Toxic” and the LD50 at 336 h [19] was 327 mg/kg. For the same molecule, the clearance [20] was 47.6 mL/min/kg, the Activity [21] was “Active” and the Activity (MGC-803) was “Dde”. The Activity (A549 [22]) was “Dde”, the Activity (A549 [23]) was “Tde” and the Activity (A549 [24]) was “Active”. The half-life [25] was 2.12 h, the Activity (A549 [26]) was “Dde” and the Activity (A549 [27]) was “Active”. It also gave an IC50 (A549 [28]) of 10 nM and a Tmax [29] of 4.8 min.
